Columns and labels:
[1] = tested on: carrageenan-induced oedema; assay: Carrageenan model, paw oedema (plethysmometer); assay type: in vivo, rat; settings: versus vehicle control
Procedure: (§1) Male Random Hooded rats (180-220 g) were used. The test compound or vehicle was administered 30 mins before the 2nd test compound or vehicle. The test compound and vehicles used were: (i) Compound A in 1% DMSO, 66% Peg400, 33% distilled water and (ii) nabumetone in 1% DMSO, 66% Peg400, 33% distilled water. Both test compounds were administered via the oral route. After a further 30 mins 100 ul of 2% carrageenan was injected intraplantar into the left hind paw and the animals were then returned to their cages. Three hours later behavioural testing of the carrageenan-induced decrease in weight on the inflamed left hind paw (% weight on the inflammed left paw) and associated oedema was assessed. Weight bearing was measured using the dual channel weight averager and paw oedema was assessed using a plethysmometer. The dual channel weight averager is commercially available and is described in the following abstract: Validation of the dual channel weight averager as an instrument for the measurement of inflammatory pain, N. M. Clayton et al., 1997 British Journal Pharmacol. 120, 219P
(§2) Note: Oedema is the presence of abnormally large amounts of fluid in the intercellular tissue spaces of the body and in the present example is used to provide a measure of inflammation (or anti-oedemic). Allodynia is a sensation of pain resulting from a non-injurious stimulus such as normal heat, cold or pressure on skin and in the present example the weight-bearing (allodynia) effect in used to provide a measure of analgesia.
(§3) The methodology was as described for (a) above. The test compounds and vehicles used were: (i) Compound A in 1% DMSO, 66% Peg400, 33% distilled water and (ii) Compound B in 1% DMSO, 66% Peg400, 33% distilled water. Both compounds were administered via the oral route.

[2] = tested on: carrageenan-induced allodynia (decrease in weight bearing on the inflamed left hind paw); assay: Carrageenan model, weight bearing on inflamed left hind paw (dual channel weight averager); assay type: in vivo, rat; settings: for % Weight on inflamed paw (Allodynia): Table (A), 3 h after carrageenan, 50% = no pain; for % Inhibition Allodynia: versus vehicle control
Procedure: as §1, §2, §3

[3] = Table (B), experiment (a), Compound A 0.4 mg/kg oral
[4] = Table (C), experiment (b), Compound A 0.4 mg/kg oral
[5] = Table (C), experiment (b), Compound B 3 mg/kg oral
[6] = Table (B), experiment (a), nabumetone 3 mg/kg oral

Structure (SMILES): CC(C)(C)c1nnc([C@H]2O[C@@H](n3cnc4c(Nc5ccc(Cl)cc5F)ncnc43)[C@H](O)[C@@H]2O)o1 [Compound A, (2S, 3S, 4R, 5R)-2-(5 tert-butyl-[1,3,4]oxadiazol-2-yl)-5-[6-(4-chloro-2-fluoro-phenylamino)-purin-9-yl]-tetrahydro-furan-3,4-diol]
- % Inhibition Oedema [1, 3]: −7.4 ± 5.7%
- % Inhibition Oedema [1, 4]: 24.9 ± 5.5%
- % Weight on inflamed paw (Allodynia) ([2]; Compound A 0.4 mg/kg oral): 25.4 ± 2.9%
- % Inhibition Allodynia [2, 3]: 17.0 ± 9.6%
- % Inhibition Allodynia [2, 4]: 47.9 ± 11.1%

Structure (SMILES): CCOc1ccc(-c2nn3ncccc3c2-c2ccc(S(C)(=O)=O)cc2)cc1 [Compound B, 2-(4-ethoxy-phenyl)-3-(4-methanesulfonyl-phenyl)-pyrazolo[1,5-b]pyridazine]
- % Inhibition Oedema [1, 5]: 35.8 ± 3.6%
- % Inhibition Allodynia [2, 5]: 45.4 ± 8.9%

Structure (SMILES): COc1ccc2cc(CCC(C)=O)ccc2c1 [Nabumetone, nabumetone, reference compound]
- % Inhibition Oedema [1, 6]: −25.1 ± 4.7%
- % Weight on inflamed paw (Allodynia) ([2]; nabumetone 3 mg/kg oral): 21.6 ± 3.6%
- % Inhibition Allodynia [2, 6]: 4.3 ± 12.2%
